# Source: patent US20220370471A1, “COMPOSITION AND METHOD FOR TREATMENT OF HIPPOCAMPAL SYNAPSE DYSFUNCTION AND COGNITIVE DEFICITS IN ALZHEIMER'S DISEASE” (BOARD OF REGENTS, THE UNIVERSITY OF TEXAS SYSTEM, priority 2019, published 2022)
# Square brackets hold non-standard residues; d marks the D form. Ends that are not written are not given here. Peptide text beside a SMILES is read from it. d2Nal = N[C@H](Cc1ccc2ccccc2c1)C(=O)O; Aib = CC(C)(N)C(=O)O
# How the values were obtained:
# DRD1 [1] = biological target: DRD1 (Homo sapiens, UniProt P21728); settings: cited from earlier work
# Chain of DRD1 (P21728 whole entry, species assumed): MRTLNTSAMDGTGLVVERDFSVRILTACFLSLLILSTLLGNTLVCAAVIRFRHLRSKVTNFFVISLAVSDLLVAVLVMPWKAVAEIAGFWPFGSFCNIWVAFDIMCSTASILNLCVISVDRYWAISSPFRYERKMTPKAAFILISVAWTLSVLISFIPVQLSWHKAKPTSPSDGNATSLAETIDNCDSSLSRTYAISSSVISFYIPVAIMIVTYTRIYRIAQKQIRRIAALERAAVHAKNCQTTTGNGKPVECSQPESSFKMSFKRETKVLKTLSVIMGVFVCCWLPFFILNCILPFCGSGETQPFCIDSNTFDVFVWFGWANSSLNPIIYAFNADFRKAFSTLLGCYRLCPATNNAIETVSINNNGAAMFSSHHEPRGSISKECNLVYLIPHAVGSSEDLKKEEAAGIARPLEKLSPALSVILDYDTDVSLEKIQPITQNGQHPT
# [2] = system: hippocampal CA3-CA1 pathway; assay: Long-term potentiation (fEPSP) in hippocampal slices; settings: MK0677 1.5 μM, SKF81297 2 μM, alone or in combination
# Experimental: For electrophysiological experiments, mice were anesthetized with isoflurane and decapitated. […] Slices were allowed to rest for 30 minutes after being transferred to the recording chamber before recordings began. Recordings of local field potentials (LFPs) were performed on an Axon Multiclamp 700B amplifier (Molecular Devices), and data were acquired and analyzed using AxoGraph X (AxoGraph Scientific). A tungsten concentric bipolar microelectrode (World Precision Instruments), and a recording glass electrode (1.5 MS2) filled with recording ACSF, were placed approximately 200 μm apart in the Schaffer collateral-commissural pathway in the CA1 region of the hippocampus. Pulses were delivered in 30 seconds intervals. Before baseline recordings commenced, input-output curves were taken, using 25-150 μA stimulation currents in 25 μA steps. Three sweeps were sampled at each stimulation intensity and averaged to represent the voltage response at each step. Recordings of baseline responses lasted for at least 40 minutes. Stimulation intensity was set to approximately 40% of the minimum intensity required to evoke the maximum response (based on the input-output curve). The stimulation intensity was kept consistent throughout the duration of the experiment. […] LTP was induced using a theta burst stimulation (TBS) protocol consisting of 10 bursts (5 pulses at 100 Hz) repeated at 5 Hz delivered two times 30 seconds apart. After LTP induction, LFPs were recorded for an additional 60 minutes. The slope of the field excitatory postsynaptic potential (fEPSP) was measured in Axograph scientific software and sweeps were averaged in bins of 5 for both the baseline and post LTP induction periods. Changes in LFPs are expressed as percentage change from the averaged baseline values.
# Ghsr1α/Drd1 complex = biological target: T1, Ghsr1α/Drd1 complex (Mus musculus, UniProt Q61616+Q99P50); assay: Duolink PLA of Ghsr1α/Drd1 complex in cultured hippocampal neurons; format: cell-based; settings: oligomeric Aβ42 1 μM, 24 hours; 1.5 μM MK0677, 2 μM SKF81297, or in combination
# T1 construct: endogenous in cells; host or cells: primary mouse hippocampal neurons (P0-1, DIV14)
# T1 sequence (Q99P50 whole entry): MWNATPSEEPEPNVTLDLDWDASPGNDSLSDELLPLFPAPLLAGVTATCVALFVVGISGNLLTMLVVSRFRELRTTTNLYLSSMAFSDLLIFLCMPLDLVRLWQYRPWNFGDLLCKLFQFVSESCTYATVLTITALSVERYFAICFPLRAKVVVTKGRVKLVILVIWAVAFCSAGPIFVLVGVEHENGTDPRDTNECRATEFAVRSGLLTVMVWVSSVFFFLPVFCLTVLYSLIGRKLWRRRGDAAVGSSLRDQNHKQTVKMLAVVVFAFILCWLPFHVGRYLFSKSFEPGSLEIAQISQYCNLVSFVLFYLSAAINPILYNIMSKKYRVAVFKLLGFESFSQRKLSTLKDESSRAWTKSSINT
# T1 sequence (Q61616 whole entry): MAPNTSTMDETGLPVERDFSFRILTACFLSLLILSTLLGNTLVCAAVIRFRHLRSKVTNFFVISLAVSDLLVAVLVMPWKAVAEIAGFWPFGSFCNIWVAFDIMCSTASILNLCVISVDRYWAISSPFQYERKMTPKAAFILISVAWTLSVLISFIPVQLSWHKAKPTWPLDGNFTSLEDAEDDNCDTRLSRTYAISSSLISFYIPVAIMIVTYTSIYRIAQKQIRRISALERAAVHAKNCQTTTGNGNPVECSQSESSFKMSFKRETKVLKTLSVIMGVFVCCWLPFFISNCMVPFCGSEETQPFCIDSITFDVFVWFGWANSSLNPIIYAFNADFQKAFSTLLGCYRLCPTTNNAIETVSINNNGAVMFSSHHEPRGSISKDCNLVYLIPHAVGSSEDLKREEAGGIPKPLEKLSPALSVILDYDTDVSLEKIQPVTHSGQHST
# From the text: (§1) Duolink In Situ Proximity Ligation Assay (PLA). […] PLA analysis was referred to previous report (66 67). NIH Image J was used for PLA signal quantification.
# (§2) Agonist treatment on primary cultured neurons. […] The exposure was followed by immunostaining to examine the effects of Ghsr1α/Drd1 co-activation on Aβ induced synaptic loss or Ghsr1α/Drd1, Aβ/Ghsr1α interaction as described in previous sections.
# Aβ/Ghsr1α complex = biological target: T2, Aβ/Ghsr1α complex (Mus musculus, UniProt Q99P50); assay: Duolink PLA of Aβ/Ghsr1α complex in cultured hippocampal neurons; format: cell-based; settings: oligomeric Aβ42 1 μM, 24 hours; 1.5 μM MK0677, 2 μM SKF81297, or in combination
# T2 construct: endogenous in cells; host or cells: primary mouse hippocampal neurons; Aβ42 peptide purchased (GenicBio, A-43-T-1000)
# T2 sequence (Q99P50 whole entry): as the sequence (Q99P50 whole entry) above
# T2 sequence (Q61616 whole entry, further chain): as the sequence (Q61616 whole entry) above
# From the text: as §1, §2
# hippocampal neurons = assay: Synaptic density (vGLUT1/PSD95) in cultured hippocampal neurons; format: cell-based, mouse; settings: for Aβ-induced synaptic loss / synaptic density / synaptogenic effect, agonist alone: 1 μM ipamorelin or capromorelin; for Aβ-induced synaptic loss / synaptic density: alone or + 2 μM SKF81297
# Experimental: Immunocytochemistry. […] NIS element software was used for image analysis. “Objective Count” dialog was used for intensity measurement. […] The overlapped dots represent synapses.
# Primary hippocampal neuron culture. Hippocampal neuron cultures were prepared as previously described (15). In brief, mouse hippocampi were dissected from postnatal day 0-1 pups in cold HBSS. Cells were dissociated by using 0.025% trypsin at 37° C. for 15 minutes, followed by 10 times homogenization in ice cold DMEM. Dissociated cells were then passed through a 100 μm cell strainer (Corning) and centrifuged for 5 minutes at 210×g. The pellet was gently resuspended in neuron culture medium (Neurobasal A with 2% B27 supplement, 0.5 mM L-glutamine, Invitrogen) and plated on poly-D-lysine (Sigma-Aldrich) coated Lab-Tek chamber slides (Nunc, 177445) with appropriate densities.
# Agonist treatment on primary cultured neurons. At 14 days in vitro (DIV14) hippocampal neurons were exposed to the synthetic growth hormone secretagogue receptor agonist MK0677 (Tocris, #5272, 1.5 μM) the dopamine D1-like receptor agonist SKF81297 (Sigma-Aldrich, #S143, 2 μM) or a mixture of MK0677 and SKF81297 for 5 minutes. The exposure was followed by immunostaining to examine the effects of Ghsr1α/Drd1 co-activation on Aβ induced synaptic loss or Ghsr1α/Drd1, Aβ/Ghsr1α interaction as described in previous sections.
# 5×FAD mice = settings: systemic ghrelin treatment; cited from earlier work
# Ghsr1α = biological target: T3, Ghsr1α (Mus musculus, UniProt Q99P50, INS247CCPGCC); assay: FlAsH-based FRET assay of Ghsr1α activity in HEK 293T cells; format: cell-based; settings: oligomeric Aβ42 2 μM, 5 minutes pre-incubation
# T3 construct: Mouse full length Ghsr1α cDNA (NCBI Gene ID: 208188) was purchased from OriGene (MR226073); expressed in transfected cells; host or cells: HEK 293T
# T3 sequence (Q99P50 with tags, fused parts or gaps INS247CCPGCC): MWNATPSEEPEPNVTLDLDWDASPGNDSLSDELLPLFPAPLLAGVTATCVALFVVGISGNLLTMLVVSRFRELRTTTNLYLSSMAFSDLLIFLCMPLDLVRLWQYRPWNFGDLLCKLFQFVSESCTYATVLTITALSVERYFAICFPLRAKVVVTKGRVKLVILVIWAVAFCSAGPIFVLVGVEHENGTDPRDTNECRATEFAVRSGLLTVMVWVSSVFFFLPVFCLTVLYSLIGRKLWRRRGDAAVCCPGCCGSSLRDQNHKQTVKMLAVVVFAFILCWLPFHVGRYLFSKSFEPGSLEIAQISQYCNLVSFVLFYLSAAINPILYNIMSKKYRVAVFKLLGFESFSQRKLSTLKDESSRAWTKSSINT
# From the text: FlAsH-based FRET was created by structural dynamics of Ghsr1α with FlAsH in the intercellular loop 3 and enhanced cyan fluorescent protein (ECFP) in the C-terminus (Ghsr1α^FlAsH/ECFP).
# FlAsH-based FRET. […] The CCPGCC motif which has higher binding affinity for FlAsH was inserted in the third intracellular loop between Va1247 and Gly248 of Ghsr1α cDNA or between Thr245 and Gly246 of Drd1 cDNA. […] Fluorescence signals were monitored on microplate reader (BioTek Cytation 5) before and after the treatments. […] Area scanning read mode was used to correct artificial inaccuracies. The FRET ratio (FFlAsH/FECFP) was calculated according to equation as previously reported (69):
# The terms a and b are correction factors for the two leakages mentioned above. a is the ratio of the direct emission of donor, ECFP at 535 nm, to its emission at 475 nm when excited at 425 nm which was calculated with cells transfected with pcDNA3-Ghsr1α^FlAsH/ECFP or pcDNA3-Drd1^FlAsH/ECFP only. b is the ratio of the direct emission of FlAsH at 535 nm when excited at 425 nm to its emission at 535 nm when excited at 500 nm which was calculated with FlAsH labeled untransfected cells.
# Ghsr1α/Drd1 = biological target: T4, Ghsr1α/Drd1 (Mus musculus, UniProt Q99P50); assay: Duolink PLA of Ghsr1α/Drd1 interaction in co-expressing HEK 293T cells; format: cell-based; settings: oligomeric Aβ42 5 μM, 24 hours
# T4 construct: Mouse full length Ghsr1α cDNA (NCBI Gene ID: 208188) was purchased from OriGene (MR226073); expressed in transfected cells; host or cells: HEK 293T
# T4 sequence (Q99P50 whole entry): as the sequence (Q99P50 whole entry) above
# Experimental: GHSR1α forms a complex with DRD1 to regulate DRD 1-mediated hippocampal synaptic strength and memory (8). In order to fully evaluate the influence of Aβ on GHSR1α, the inventor next examined whether oligomeric Aβ42 affects heterodimerization of GHSR1α and DRD1 by using HEK 293T cells co-expressing Ghsr1α and Drd1 (FIG. 2c, FIG. S2). After an incubation with oligomeric Aβ42 (5 μM) for 24 hours, the interaction between Ghsr1α and Drd1 determined by Duolink PLA was suppressed (FIGS. 2d-e), indicating the inhibitory effect of oligomeric Aβ42 on Ghsr1α/Drd1 heterodimerization. To test whether GHSR1α/DRD1 interaction was modulated in a clinical setting, the inventor examined hippocampal tissues from 5 patients with AD and compared with tissues from 5 healthy controls. […] Decreased Ghsr1α/Drd1 heterodimerization also occurred in 5×FAD mice, and this effect was exacerbated with age (FIGS. 2h-i). […] FlAsH-based FRET assay was performed to examine the effect of oligomeric Aβ42 ([…]) on agonist (SKF81297 100 μM)-induced Drd1 activity in HEK 293T cells expressing Drd1 with FlAsH in the intercellular loop 3 and ECFP in the C-terminus (Drd1^FlAsH/ECFP). […]
# (§3) Duolink In Situ Proximity Ligation Assay (PLA). […] NIH Image J was used for PLA signal quantification. […]
# Ghsr1α Δaa42-116 = biological target: T5, Ghsr1α Δaa42-116 (Mus musculus, UniProt Q99P50, DEL42-116); assay: Duolink PLA and Co-IP of oligomeric Aβ42 with Ghsr1α mutants in HEK 293T cells; format: binding; settings: 5 μM oligomeric Aβ42, 24 hours; Duolink PLA, validated by Co-IP
# T5 construct: Mouse full length Ghsr1α cDNA (NCBI Gene ID: 208188) was purchased from OriGene (MR226073); expressed in transfected cells; host or cells: HEK 293T
# T5 sequence (Q99P50 with tags, fused parts or gaps DEL42-116): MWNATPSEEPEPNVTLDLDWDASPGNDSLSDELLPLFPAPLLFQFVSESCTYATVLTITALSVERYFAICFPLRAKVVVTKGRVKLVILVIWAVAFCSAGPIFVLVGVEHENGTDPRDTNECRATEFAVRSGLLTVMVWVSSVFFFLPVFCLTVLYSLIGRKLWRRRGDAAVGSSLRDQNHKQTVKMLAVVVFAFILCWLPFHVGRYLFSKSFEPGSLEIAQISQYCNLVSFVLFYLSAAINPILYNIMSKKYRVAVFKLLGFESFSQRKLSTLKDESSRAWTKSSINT
# From the text: Aβ3 physically interacts with GHSR1α. To determine whether GHSR1α expression is changed in the hippocampus in AD, the inventor performed immunohistochemical and membrane blotting assays in post-mortem hippocampal tissues from 4 subjects with AD and 4 non-demented healthy donors (non-AD). He observed increased GHSR1α expression in hippocampal tissues from patients with AD (FIGS. S1a-b and Table S1), which positively correlated with the amounts of soluble Aβ40 and Aβ42 in hippocampi (FIGS. S1c-d). […] Because Aβ binds to multiple proteins (14-16), the inventor next explored whether GHSR1α is an Aβ binding target. In order to examine the interaction between GHSR1α and AP, he labeled GHSR1α and Aβ with their specific antibodies and ran Duolink proximity ligation assay (PLA), which is a sensitive method to visualize and quantify direct protein interactions in situ (17), on hippocampal tissues from 4 subjects with AD and 4 healthy donors. The inventor observed Aβ3/GHSR1α complexes in hippocampi from patients with AD (FIGS. 1a-b). […] HEK 293T cells expressing full-length mouse Ghsr1α or its mutants were exposed to 5 μM oligomeric Aβ42 for 24 hours followed by Duolink PLA to detect Aβ/Ghsr1α complexes. […]
# as §3
# Drd1 [3] = biological target: T6, Drd1 (Mus musculus, UniProt Q61616); assay: Duolink PLA and Co-IP of oligomeric Aβ42 with Drd1 in HEK 293T cells; format: binding; settings: oligomeric Aβ42 24 hours, Drd1-expressing HEK 293T cells
# T6 construct: expressed in transfected cells; host or cells: HEK 293T
# T6 sequence (Q61616 whole entry): as the sequence (Q61616 whole entry) above
# Drd1 [4] = biological target: T7, Drd1 (Mus musculus, UniProt Q61616, INS245CCPGCC); assay: FlAsH-based FRET assay of Drd1 activity in HEK 293T cells; format: cell-based; settings: oligomeric Aβ42 2 μM preincubation; SKF81297 100 μM
# T7 construct: expressed in transfected cells; host or cells: HEK 293T
# T7 sequence (Q61616 with tags, fused parts or gaps INS245CCPGCC): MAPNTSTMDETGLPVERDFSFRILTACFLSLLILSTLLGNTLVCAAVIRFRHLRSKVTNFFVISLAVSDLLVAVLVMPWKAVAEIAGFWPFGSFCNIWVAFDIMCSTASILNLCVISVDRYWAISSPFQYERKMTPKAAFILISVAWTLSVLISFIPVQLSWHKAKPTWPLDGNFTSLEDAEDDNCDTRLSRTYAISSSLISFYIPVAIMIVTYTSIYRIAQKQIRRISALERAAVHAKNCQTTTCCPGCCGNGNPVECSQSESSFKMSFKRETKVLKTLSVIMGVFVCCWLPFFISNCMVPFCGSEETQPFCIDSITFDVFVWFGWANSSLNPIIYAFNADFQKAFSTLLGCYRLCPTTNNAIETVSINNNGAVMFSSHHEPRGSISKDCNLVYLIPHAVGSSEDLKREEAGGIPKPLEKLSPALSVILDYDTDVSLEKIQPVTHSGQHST
# Experimental: GHSR1α forms a complex with DRD1 to regulate DRD 1-mediated hippocampal synaptic strength and memory (8). In order to fully evaluate the influence of Aβ on GHSR1α, the inventor next examined whether oligomeric Aβ42 affects heterodimerization of GHSR1α and DRD1 by using HEK 293T cells co-expressing Ghsr1α and Drd1 (FIG. 2c, FIG. S2). After an incubation with oligomeric Aβ42 (5 μM) for 24 hours, the interaction between Ghsr1α and Drd1 determined by Duolink PLA was suppressed (FIGS. 2d-e), indicating the inhibitory effect of oligomeric Aβ42 on Ghsr1α/Drd1 heterodimerization. To test whether GHSR1α/DRD1 interaction was modulated in a clinical setting, the inventor examined hippocampal tissues from 5 patients with AD and compared with tissues from 5 healthy controls. […] Decreased Ghsr1α/Drd1 heterodimerization also occurred in 5×FAD mice, and this effect was exacerbated with age (FIGS. 2h-i). […]
# FlAsH-based FRET. […] Fluorescence signals were monitored on microplate reader (BioTek Cytation 5) before and after the treatments. […] Area scanning read mode was used to correct artificial inaccuracies. The FRET ratio (FFlAsH/FECFP) was calculated according to equation as previously reported (69): […]
compound,measurement,setting,value
Oc1cc2c(cc1O)[C@H]1c3ccccc3CN[C@@H]1CC2 (racemic) [dihydrexidine],binding to DRD1 / DRD2,DRD1 [1],much weaker binding affinity
Oc1cc2c(cc1O)C(c1ccccc1)CNCC2 (stereo not shown) [SKF38393],binding to DRD1 / DRD2,DRD1 [1],selectively bind DRD1
Oc1cc2c(c(Cl)c1O)CCNCC2c1ccccc1 (stereo not shown) [SKF81297],stimulus-evoked hippocampal LTP in 5×FAD slices,[2]; slices from 4 month-old 5×FAD mice,no effect
same,hippocampal LTP in non-Tg slices,[2]; slices from 4 month-old non-Tg mice,no effect
same,Ghsr1α/Drd1 complex formation,Ghsr1α/Drd1 complex,not the agonists alone
same,Aβ/Ghsr1α complex formation,Aβ/Ghsr1α complex,not MK0677 or SKF81297 alone
same,synaptic density / oligomeric Aβ42-induced synapse loss,"hippocampal neurons; oligomeric Aβ42 1 μM, 24 hours, 1.5 μM MK0677, 2 μM SKF81297, or in combination",failed to alleviate
same,"synaptic density, agonist alone","hippocampal neurons; without oligomeric Aβ42, MK0677 at doses greater than 1.5 μM, SKF81297 2 μM",increased synaptic density
CN1N=C2CCN(C(=O)[C@@H](COCc3ccccc3)NC(=O)C(C)(C)N)C[C@@]2(Cc2ccccc2)C1=O [capromorelin],Aβ-induced synaptic loss / synaptic density,"hippocampal neurons; oligomeric Aβ42 1 μM, 24 hours",could ameliorate
same,"synaptogenic effect, agonist alone",hippocampal neurons; without oligomeric Aβ42,comparable synaptogenic effect with ghrelin
CC(C)(N)C(=O)N[C@@H](Cc1c[nH]cn1)C(=O)N[C@H](Cc1ccc2ccccc2c1)C(=O)N[C@H](Cc1ccccc1)C(=O)N[C@@H](CCCCN)C(N)=O [ipamorelin] (H-[Aib]H[d2Nal][dF]K-NH2),Aβ-induced synaptic loss / synaptic density,"hippocampal neurons; oligomeric Aβ42 1 μM, 24 hours",could ameliorate
same,"synaptogenic effect, agonist alone",hippocampal neurons; without oligomeric Aβ42,comparable synaptogenic effect with ghrelin
"ghrelin: the natural ligand of GHSR1α (GSSFLSPEHQRVQQRKESKKPPAKLQPR; ends and bridges not checked; UniProt Q9UBU3 24-51, looked up)",hippocampal Aβ load in 5×FAD mice,5×FAD mice,did not affect hippocampal Aβ load
oligomeric Aβ42: Aβ42 peptide (GenicBio) incubated at 4° C. for 24 hours to prepare oligomers,impact on FRET ratio in vehicle-treated cells,Ghsr1α; no agonist,no impact
same,effect on agonist-induced Ghsr1α activation,Ghsr1α; then MK0677 50 μM,suppressed
same,interaction between Ghsr1α and Drd1 (Duolink PLA),Ghsr1α/Drd1,suppressed
same,interaction with Ghsr1α mutant devoid of aa42-116,Ghsr1α Δaa42-116,no interaction
same,Aβ/DRD1 complexes,Drd1 [3],not observed
same,impact on agonist-induced Drd1 activation,Drd1 [4],no impact
